# Key:
# [1] = molecular target: T1, Lanosterol 14-alpha demethylase (Candida albicans (strain SC5314 / ATCC MYA-2876) (Yeast), UniProt P10613); assay: Inhibition of Candida albicans CYP51 assessed as lanosterol level at 0.015 ug/ml measured after 18 hrs by GC-MS analysis relative to control; design: scale not given: the % may be the effect or the level left; settings: at 0.015 µg/mL
# Candida tropicalis = assay: Antifungal activity against Candida tropicalis GIM2.183 assessed as inhibition of fungal growth by NCCLS protocol based method; type: functional
# Candida albicans [2] = assay: Antifungal activity against Candida albicans SC5314 assessed as inhibition of fungal growth by NCCLS protocol based method; type: functional
# Aspergillus fumigatus = assay: Antifungal activity against Aspergillus fumigatus CGMCC3.7795 assessed as inhibition of fungal growth by NCCLS protocol based method; type: functional
# Candida albicans [3] = assay: Antifungal activity against Candida albicans GIM2.194 assessed as inhibition of fungal growth by NCCLS protocol based method; type: functional
# Pichia kudriavzevii = assay: Antifungal activity against Candida krusei GIM2.1 assessed as inhibition of fungal growth by NCCLS protocol based method; type: functional
# Candida parapsilosis = assay: Antifungal activity against Candida parapsilosis GIM2.190 assessed as inhibition of fungal growth by NCCLS protocol based method; type: functional; settings: Lodderomyces parapsilosis
# Candida albicans [4] = assay: Antifungal activity against fluconazole resistant Candida albicans CaR assessed as inhibition of fungal growth by NCCLS protocol based method; type: functional
# Candida albicans [5] = assay: Antifungal activity against fluconazole and itraconazole resistant Candida albicans 17# assessed as inhibition of fungal growth by NCCLS protocol based method; type: functional
# [6] = Metabolic stability in human liver microsomes assessed as half life at 100 uM in the presence of NADPH measured upto 60 mins by LC-MS/MS analysis; type: ADME, Microsome
# [7] = Intrinsic microsomal clearance in human liver microsomes at 100 uM in the presence of NADPH measured up to 60 mins by LC-MS/MS analysis; type: ADME, Microsome; settings: read-out: CLH
# [8] = Metabolic stability in human liver microsomes assessed as compound remaining at 100 uM measured after 60 mins in the presence of NADPH by LC-MS/MS analysis; type: ADME, Microsome; settings: read-out: Stabilty
# [9] = Metabolic stability in human liver microsomes assessed as compound remaining at 100 uM measured after 60 mins in the absence of NADPH by LC-MS/MS analysis; type: ADME, Microsome; settings: read-out: Stabilty
# [10] = Metabolic stability in human plasma assessed as parent compound remaining at 100 uM measured after 60 mins by LC-MS/MS analysis; type: ADME, cell-free; settings: read-out: Stabilty
# [11] = Metabolic stability in human plasma assessed as parent compound remaining at 100 uM measured after 120 mins by LC-MS/MS analysis; type: ADME, cell-free; settings: 2 h
# [12] = Metabolic stability in human plasma assessed as half life at 100 uM measured after 60 mins by LC-MS/MS analysis; type: ADME, cell-free
# Cytochrome P450 1A2 = molecular target: T2, Cytochrome P450 1A2 (Homo sapiens, UniProt P05177); assay: Inhibition of CYP1A2 in human liver microsome incubated for 10 mins in the presence of NADPH by LC-MS/MS analysis; type: ADME, microsomes
# T2 sequence (P05177 whole entry): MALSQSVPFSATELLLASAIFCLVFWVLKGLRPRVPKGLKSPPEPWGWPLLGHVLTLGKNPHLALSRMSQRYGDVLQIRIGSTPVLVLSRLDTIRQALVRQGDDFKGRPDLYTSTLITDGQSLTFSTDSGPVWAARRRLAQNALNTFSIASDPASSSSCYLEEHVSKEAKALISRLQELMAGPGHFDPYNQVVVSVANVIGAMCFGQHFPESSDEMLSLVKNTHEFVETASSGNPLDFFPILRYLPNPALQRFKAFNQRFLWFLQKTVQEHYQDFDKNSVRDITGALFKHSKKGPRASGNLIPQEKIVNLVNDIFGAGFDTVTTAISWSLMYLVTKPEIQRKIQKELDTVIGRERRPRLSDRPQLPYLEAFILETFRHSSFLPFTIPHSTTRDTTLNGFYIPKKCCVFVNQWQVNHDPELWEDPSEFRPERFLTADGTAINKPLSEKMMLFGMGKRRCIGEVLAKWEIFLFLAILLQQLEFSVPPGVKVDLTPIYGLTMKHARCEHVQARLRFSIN
# Cytochrome P450 2C9 = Cytochrome P450 2C9 (Homo sapiens, UniProt P11712); assay: Inhibition of CYP2C9 in human liver microsome incubated for 10 mins in the presence of NADPH by LC-MS/MS analysis; type: ADME, microsomes
# Chain of Cytochrome P450 2C9 (P11712 whole entry): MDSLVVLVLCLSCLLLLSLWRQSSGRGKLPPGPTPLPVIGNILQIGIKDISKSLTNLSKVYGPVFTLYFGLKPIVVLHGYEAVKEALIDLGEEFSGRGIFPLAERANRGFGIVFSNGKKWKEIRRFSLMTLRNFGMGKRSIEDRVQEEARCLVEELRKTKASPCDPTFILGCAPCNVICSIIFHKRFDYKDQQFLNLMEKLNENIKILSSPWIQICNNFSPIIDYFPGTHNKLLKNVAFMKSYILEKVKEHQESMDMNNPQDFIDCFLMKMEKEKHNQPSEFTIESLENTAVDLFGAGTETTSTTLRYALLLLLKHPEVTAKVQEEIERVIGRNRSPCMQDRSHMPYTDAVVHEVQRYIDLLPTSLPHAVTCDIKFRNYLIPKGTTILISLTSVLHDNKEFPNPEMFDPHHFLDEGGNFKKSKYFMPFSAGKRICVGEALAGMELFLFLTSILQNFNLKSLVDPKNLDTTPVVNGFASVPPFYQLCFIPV
# Cytochrome P450 2C19 = Cytochrome P450 2C19 (Homo sapiens, UniProt P33261); assay: Inhibition of CYP2C19 in human liver microsome incubated for 10 mins in the presence of NADPH by LC-MS/MS analysis; type: ADME, microsomes
# Chain of Cytochrome P450 2C19 (P33261 whole entry): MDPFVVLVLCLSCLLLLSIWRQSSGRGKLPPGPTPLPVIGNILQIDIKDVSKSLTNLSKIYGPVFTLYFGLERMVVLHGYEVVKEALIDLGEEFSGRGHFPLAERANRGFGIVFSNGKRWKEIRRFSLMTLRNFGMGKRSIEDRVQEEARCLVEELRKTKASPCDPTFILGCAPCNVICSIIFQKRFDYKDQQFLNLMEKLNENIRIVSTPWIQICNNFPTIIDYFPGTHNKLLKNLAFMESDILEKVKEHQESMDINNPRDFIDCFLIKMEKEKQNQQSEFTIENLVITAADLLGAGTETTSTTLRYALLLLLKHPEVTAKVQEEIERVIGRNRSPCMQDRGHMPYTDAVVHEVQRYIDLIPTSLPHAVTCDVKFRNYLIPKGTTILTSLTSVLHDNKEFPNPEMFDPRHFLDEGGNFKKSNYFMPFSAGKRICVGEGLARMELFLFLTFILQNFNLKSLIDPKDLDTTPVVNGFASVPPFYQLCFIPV
# Cytochrome P450 2D6 = Cytochrome P450 2D6 (Homo sapiens, UniProt P10635); assay: Inhibition of CYP2D6 in human liver microsome incubated for 10 mins in the presence of NADPH by LC-MS/MS analysis; type: ADME, microsomes
# Chain of Cytochrome P450 2D6 (P10635 whole entry): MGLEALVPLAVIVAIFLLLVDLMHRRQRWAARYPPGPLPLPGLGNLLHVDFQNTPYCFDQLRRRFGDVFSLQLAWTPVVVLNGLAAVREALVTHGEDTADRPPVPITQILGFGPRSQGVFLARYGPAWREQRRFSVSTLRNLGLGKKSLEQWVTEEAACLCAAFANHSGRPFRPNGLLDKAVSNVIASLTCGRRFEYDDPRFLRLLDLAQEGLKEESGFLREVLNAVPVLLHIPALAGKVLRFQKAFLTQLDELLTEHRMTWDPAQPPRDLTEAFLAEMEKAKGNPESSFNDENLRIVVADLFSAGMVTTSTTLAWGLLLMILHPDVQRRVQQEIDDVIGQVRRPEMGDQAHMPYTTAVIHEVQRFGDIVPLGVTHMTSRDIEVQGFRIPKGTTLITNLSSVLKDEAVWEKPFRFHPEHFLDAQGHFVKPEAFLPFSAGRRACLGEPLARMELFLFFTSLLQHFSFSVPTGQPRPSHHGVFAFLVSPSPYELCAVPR
# Cytochrome P450 3A4 = Cytochrome P450 3A4 (Homo sapiens, UniProt P08684); assay: Inhibition of CYP3A4 in human liver microsome incubated for 10 mins in the presence of NADPH by LC-MS/MS analysis; type: ADME, microsomes
# Chain of Cytochrome P450 3A4 (P08684 whole entry): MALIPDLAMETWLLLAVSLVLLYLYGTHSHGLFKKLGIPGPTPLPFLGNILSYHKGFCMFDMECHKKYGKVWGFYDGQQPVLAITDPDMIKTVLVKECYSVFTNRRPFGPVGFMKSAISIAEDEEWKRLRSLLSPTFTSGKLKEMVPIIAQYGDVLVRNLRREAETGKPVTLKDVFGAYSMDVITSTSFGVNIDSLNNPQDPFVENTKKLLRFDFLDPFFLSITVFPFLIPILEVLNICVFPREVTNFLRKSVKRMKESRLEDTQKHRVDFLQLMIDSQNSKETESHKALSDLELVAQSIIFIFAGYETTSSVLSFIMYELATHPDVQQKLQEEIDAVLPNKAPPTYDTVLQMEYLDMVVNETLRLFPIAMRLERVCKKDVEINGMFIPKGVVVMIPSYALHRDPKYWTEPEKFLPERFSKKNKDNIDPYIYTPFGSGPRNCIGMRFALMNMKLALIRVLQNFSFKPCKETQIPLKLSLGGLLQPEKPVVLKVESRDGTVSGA
# [13] = Initial plasma concentration in Sprague-Dawley rat at 2 mg/kg, iv by LC-MS/MS analysis; type: ADME, organism-based
# [14] = Half life in Sprague-Dawley rat at 2 mg/kg, iv measured up to 24 hrs by LC-MS/MS analysis; type: ADME, organism-based; settings: in vivo
# [15] = Volume of distribution at steady state in Sprague-Dawley rat at 2 mg/kg, iv measured after 24 hrs by LC-MS/MS analysis; type: ADME, organism-based; settings: in vivo, read-out: Vdss
# [16] = Clearance in Sprague-Dawley rat at 2 mg/kg, iv measured after 24 hrs by LC-MS/MS analysis; type: ADME, organism-based; settings: in vivo
# [17] = AUClast in Sprague-Dawley rat at 2 mg/kg, iv measured after 24 hrs by LC-MS/MS analysis; type: ADME, organism-based; design: route intravenous, dose 2 mg/kg, time 24 hrs; settings: in vivo
# [18] = AUC (0-infinity) in Sprague-Dawley rat at 2 mg/kg, iv measured after 24 hrs by LC-MS/MS analysis; type: ADME, organism-based; design: route intravenous, dose 2 mg/kg, time 24 hrs; settings: in vivo
# [19] = Cmax in Sprague-Dawley rat at 10 mg/kg, po measured up to 24 hrs by LC-MS/MS analysis; type: ADME, organism-based; design: route oral, dose 10 mg/kg, time <=24; settings: in vivo
# [20] = Tmax in Sprague-Dawley rat at 10 mg/kg, po measured up to 24 hrs by LC-MS/MS analysis; type: ADME, organism-based; settings: in vivo
# [21] = AUClast in Sprague-Dawley rat at 10 mg/kg, po measured after 24 hrs by LC-MS/MS analysis; type: ADME, organism-based; design: route oral, time 24 hrs, dose 10 mg/kg; settings: in vivo
# [22] = Oral bioavailability in Sprague-Dawley rat at 10 mg/kg measured after 24 hrs by LC-MS/MS analysis; type: ADME, organism-based; settings: in vivo
# [23] = molecular target: T1, Lanosterol 14-alpha demethylase; assay: Inhibition of Candida albicans CYP51 assessed as ergosterol level at 0.015 ug/ml measured after 18 hrs by GC-MS analysis relative to control; design: scale not given: the % may be the effect or the level left; settings: at 0.015 µg/mL
# [24] = molecular target: T1, Lanosterol 14-alpha demethylase; assay: Inhibition of Candida albicans CYP51 assessed as eburicol level at 0.015 ug/ml measured after 18 hrs by GC-MS analysis relative to control; design: scale not given: the % may be the effect or the level left; settings: at 0.015 µg/mL
# [25] = molecular target: T1, Lanosterol 14-alpha demethylase; assay: Inhibition of Candida albicans CYP51 assessed as 14alpha-methylergosta-8,24(28)-dien3beta-6alpha-diol level at 0.015 ug/ml measured after 18 hrs by GC-MS analysis relative to control; design: scale not given: the % may be the effect or the level left; settings: at 0.015 µg/mL
# [26] = molecular target: T1, Lanosterol 14-alpha demethylase; assay: Inhibition of Candida albicans CYP51 assessed as unknown sterol level at 0.015 ug/ml measured after 18 hrs by GC-MS analysis relative to control; design: scale not given: the % may be the effect or the level left; settings: at 0.015 µg/mL
# Candida albicans [27] = assay: Antifungal activity against Candida albicans CPCC400523 assessed as inhibition of fungal growth by NCCLS protocol based method; type: functional
# Cryptococcus neoformans [28] = assay: Antifungal activity against Cryptococcus neoformans CGMCC2.3161 assessed as inhibition of fungal growth by NCCLS protocol based method; type: functional
# Cryptococcus neoformans [29] = assay: Antifungal activity against Cryptococcus neoformans GIM2.209 assessed as inhibition of fungal growth by NCCLS protocol based method; type: functional
# [30] = molecular target: T1, Lanosterol 14-alpha demethylase; assay: Inhibition of Candida albicans CYP51 assessed as lanosterol level at 0.25 ug/ml measured after 18 hrs by GC-MS analysis relative to control; design: scale not given: the % may be the effect or the level left; settings: at 0.25 µg/mL
# [31] = molecular target: T1, Lanosterol 14-alpha demethylase; assay: Inhibition of Candida albicans CYP51 assessed as ergosterol level at 0.25 ug/ml measured after 18 hrs by GC-MS analysis relative to control; design: scale not given: the % may be the effect or the level left; settings: at 0.25 µg/mL
# [32] = molecular target: T1, Lanosterol 14-alpha demethylase; assay: Inhibition of Candida albicans CYP51 assessed as eburicol level at 0.25 ug/ml measured after 18 hrs by GC-MS analysis relative to control; design: scale not given: the % may be the effect or the level left; settings: at 0.25 µg/mL
# [33] = molecular target: T1, Lanosterol 14-alpha demethylase; assay: Inhibition of Candida albicans CYP51 assessed as 14alpha-methylergosta-8,24(28)-dien3beta-6alpha-diol level at 0.25 ug/ml measured after 18 hrs by GC-MS analysis relative to control; design: scale not given: the % may be the effect or the level left; settings: at 0.25 µg/mL
# [34] = molecular target: T1, Lanosterol 14-alpha demethylase; assay: Inhibition of Candida albicans CYP51 assessed as unknown sterol level at 0.25 ug/ml measured after 18 hrs by GC-MS analysis relative to control; design: scale not given: the % may be the effect or the level left; settings: at 0.25 µg/mL
# T1 sequence (P10613 whole entry): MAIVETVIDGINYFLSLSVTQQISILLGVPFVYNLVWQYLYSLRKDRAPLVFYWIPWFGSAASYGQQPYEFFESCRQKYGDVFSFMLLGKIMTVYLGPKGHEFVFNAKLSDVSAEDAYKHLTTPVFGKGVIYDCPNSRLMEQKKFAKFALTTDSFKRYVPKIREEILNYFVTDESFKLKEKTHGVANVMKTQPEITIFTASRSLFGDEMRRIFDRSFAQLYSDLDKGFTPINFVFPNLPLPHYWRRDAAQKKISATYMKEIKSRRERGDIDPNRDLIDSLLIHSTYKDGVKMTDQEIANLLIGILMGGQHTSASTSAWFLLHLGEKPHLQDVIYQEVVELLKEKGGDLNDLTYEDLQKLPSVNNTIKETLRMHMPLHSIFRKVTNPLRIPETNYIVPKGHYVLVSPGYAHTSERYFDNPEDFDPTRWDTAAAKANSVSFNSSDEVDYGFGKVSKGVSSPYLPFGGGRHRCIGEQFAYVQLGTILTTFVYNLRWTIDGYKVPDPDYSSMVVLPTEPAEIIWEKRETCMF
compound,measurement,setting,value
Fc1ccc(C2(Cn3cncn3)COC(c3ccc(-c4ccccc4F)cc3)=N2)cc1 (centres undefined),Activity,[1],18.89%
same,MIC,Candida tropicalis,0.06 µg/mL
same,MIC,Candida albicans [2],< 0.03 µg/mL
same,MIC,Aspergillus fumigatus,> 64 µg/mL
same,MIC,Candida albicans [3],< 0.03 µg/mL
same,MIC,Pichia kudriavzevii,0.25 µg/mL
same,MIC,Candida parapsilosis,8 µg/mL
same,MIC,Candida albicans [4],0.25 µg/mL
same,MIC,Candida albicans [5],> 64 µg/mL
same,half-life at 100 µM,[6],> 2.42 h
same,microsomal CLint at 100 µM,[7],< 9.6 µL/min/mg
same,"remaining at 1 h, 100 µM",[8],75.4%
same,"remaining at 1 h, 100 µM",[9],89.6%
same,"remaining at 1 h, 100 µM",[10],95.3%
same,Stabilty,[11],120.4%
same,half-life at 100 µM,[12],> 4.8 h
same,IC50,Cytochrome P450 1A2,6.64 µM
same,IC50,Cytochrome P450 2C9,2.3 µM
same,IC50,Cytochrome P450 2C19,1.56 µM
same,IC50,Cytochrome P450 2D6,> 50 µM
same,IC50,Cytochrome P450 3A4,14.8 µM
same,C0,[13],758 ng/mL
same,half-life,[14],9.35 h
same,Vd,[15],7.18 L/kg
same,clearance,[16],10.8 mL/min/kg
same,AUC(0-t) at 24 h,[17],2690 ng·h/mL
same,AUC(0-inf),[18],3130 ng·h/mL
same,Cmax,[19],754 ng/mL
same,Tmax,[20],5.33 h
same,AUC(0-t) at 24 h,[21],10400 ng·h/mL
same,bioavailability,[22],77.7%
same,Activity,[23],38.82%
same,Activity,[24],5.08%
same,Activity,[25],32.74%
same,Activity,[26],1.97%
c1ccc(-c2ccc(C3=N[C@@H](Cn4ccnc4)CO3)cc2)cc1,MIC,Candida albicans [2],1 µg/mL
same,MIC,Candida albicans [27],8 µg/mL
same,MIC,Cryptococcus neoformans [28],> 64 µg/mL
same,MIC,Aspergillus fumigatus,1 µg/mL
same,half-life at 100 µM,[6],0.387 h
OC(Cn1cncn1)(Cn1cncn1)c1ccc(F)cc1F [FLUCONAZOLE],MIC,Candida tropicalis,1 µg/mL
same,MIC,Cryptococcus neoformans [29],4 µg/mL
same,MIC,Candida albicans [2],0.5 µg/mL
same,MIC,Candida albicans [27],1 µg/mL
same,MIC,Cryptococcus neoformans [28],4 µg/mL
same,MIC,Aspergillus fumigatus,> 64 µg/mL
same,MIC,Candida albicans [3],1 µg/mL
same,MIC,Pichia kudriavzevii,8 µg/mL
same,MIC,Candida parapsilosis,2 µg/mL
same,MIC,Candida albicans [4],> 64 µg/mL
same,MIC,Candida albicans [5],> 64 µg/mL
same,Activity,[30],15.13%
same,Activity,[31],34.27%
same,Activity,[32],7.57%
same,Activity,[33],30.66%
same,Activity,[34],1.91%
Fc1cccc(C2(Cn3cncn3)COC(c3ccc(-c4ccccc4F)cc3)=N2)c1 (centres undefined),MIC,Candida tropicalis,0.25 µg/mL
same,MIC,Candida albicans [2],0.06 µg/mL
same,MIC,Aspergillus fumigatus,> 64 µg/mL
same,MIC,Candida albicans [3],0.06 µg/mL
same,MIC,Pichia kudriavzevii,> 64 µg/mL
same,MIC,Candida parapsilosis,> 64 µg/mL
same,MIC,Candida albicans [4],> 64 µg/mL
same,MIC,Candida albicans [5],> 64 µg/mL
